# Laboratory results reported in patent publication US20140080162A1, “FLUORESCENCE LIFETIME EPIGENETICS ASSAYS” (ALMAC SCIENCES (SCOTLAND) LIMITED, priority 2011, published 2014).
# Read-outs that look alike come from different tables or passages of the source. Residues, ends and D or L forms follow the SMILES beside them. *: point of attachment. Propanoyl(3-(9AA-2-yl)) = Nc1c2ccccc2nc2ccc(CCC(=O)*)cc12
# Experiments:
# [1] = biological target: T1, G9a (Homo sapiens, UniProt Q96KQ7); test: G9a FLT protease protection assay; assay type: biochemical; details: SAM 100 μM, 2 h; for G9a concentration sufficient to confer complete protease protection: G9a (Abcam), 2 nM Endo-LysC
# T1 construct: purchased Millipore; Abcam; BPS Bioscience (via AMSBio)
# T1 sequence (Q96KQ7 1-1210): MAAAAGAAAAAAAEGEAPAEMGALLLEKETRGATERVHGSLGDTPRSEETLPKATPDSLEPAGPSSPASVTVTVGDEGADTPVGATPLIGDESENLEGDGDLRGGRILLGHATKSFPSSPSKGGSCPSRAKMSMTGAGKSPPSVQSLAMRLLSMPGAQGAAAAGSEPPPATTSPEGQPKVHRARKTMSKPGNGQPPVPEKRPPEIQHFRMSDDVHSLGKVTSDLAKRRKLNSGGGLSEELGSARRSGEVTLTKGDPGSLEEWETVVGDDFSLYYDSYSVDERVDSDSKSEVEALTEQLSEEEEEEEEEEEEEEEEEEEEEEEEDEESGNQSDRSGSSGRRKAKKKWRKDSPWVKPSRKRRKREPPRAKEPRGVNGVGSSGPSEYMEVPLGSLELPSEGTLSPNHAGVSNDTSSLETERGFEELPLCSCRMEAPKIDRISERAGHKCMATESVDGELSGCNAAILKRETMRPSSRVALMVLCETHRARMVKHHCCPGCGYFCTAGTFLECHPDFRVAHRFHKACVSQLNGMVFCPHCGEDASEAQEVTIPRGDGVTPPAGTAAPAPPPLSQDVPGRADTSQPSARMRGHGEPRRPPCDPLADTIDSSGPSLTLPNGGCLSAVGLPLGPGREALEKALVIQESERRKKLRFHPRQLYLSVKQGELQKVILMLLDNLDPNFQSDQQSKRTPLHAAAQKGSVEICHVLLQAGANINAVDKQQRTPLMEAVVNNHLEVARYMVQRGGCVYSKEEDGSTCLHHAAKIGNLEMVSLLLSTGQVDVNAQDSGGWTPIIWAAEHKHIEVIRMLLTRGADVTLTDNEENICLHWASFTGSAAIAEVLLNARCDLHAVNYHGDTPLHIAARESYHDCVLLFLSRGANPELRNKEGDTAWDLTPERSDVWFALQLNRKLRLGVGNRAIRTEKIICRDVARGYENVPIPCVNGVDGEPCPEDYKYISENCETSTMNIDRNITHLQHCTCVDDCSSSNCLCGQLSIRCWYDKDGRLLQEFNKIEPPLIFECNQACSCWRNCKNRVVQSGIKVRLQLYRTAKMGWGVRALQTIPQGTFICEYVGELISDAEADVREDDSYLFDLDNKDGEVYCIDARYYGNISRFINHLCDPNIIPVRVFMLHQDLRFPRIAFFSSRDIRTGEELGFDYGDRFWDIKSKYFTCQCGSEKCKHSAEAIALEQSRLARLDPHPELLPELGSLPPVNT
# Procedure: Assays were performed at room temperature for 2 h and then FLTs measured using a NanoTaurus plate reader (Edinburgh Instruments Ltd.). Each well was then treated with 2 nM protease (Endo-LysC) (10 μl) and the plate incubated at room temperature for 60 min. The FLTs were then re-measured. Controls were included containing no G9a or no protease.
# Peptides 4 and 9 were incubated with SAM (100 μM) and varying concentrations of G9a (Abcam) in 20 μl of assay buffer in a 384-well black microplate (Greiner). The assays were performed at room temperature for 2 h after which FLTs were measured as previously described. 2 nM Endo-LysC (10 μl per well) was then added and FLTs re-measured following 10 min and 60 min incubation with the protease.
# The dependence of the G9a assay on SAM was investigated using both peptide 4 and 9 as substrates. Assays were performed in a 384-well microplate in assay buffer (20 μl) using either 25 nM or 10 nM G9a and 1 μM substrate. SAM concentrations were varied from 200 μM-0.4 μM and assays were incubated for 2 h at room temperature. On completion, Endo-LysC (2 nM) was added to each well and FLTs measured following a 10 min incubation period.
# (§2) Reactions were performed in a 384-well microplate at room temperature for 2 h and stopped by the addition of Endo-LysC (2 nM).
# Alternatively, assays were performed in a 384-well microplate at room temperature with an assay volume of 20 μl per well. To wells containing recombinant G9a enzyme in assay buffer (5 μl) was added peptide in assay buffer (10 μl). Reactions were started by the addition of SAM (5 μl). The plate was shaken and then sealed with a coverslip. […] The concentration of peptide was kept constant at 1 μM. Assays were started at different times and stopped together after 2 h by the addition of Endo-LysC (10 μl in assay buffer; final concentration 2 nM). Following incubation at room temperature for 10 min, the microplate was centrifuged at 500 rpm for 1 min and FLTs measured.
# For inhibitor titrations, compounds (5 μl) were preincubated with G9a (5 μl) for 30 min at room temperature prior to addition of peptide (5 μl) and SAM (5 μl). Controls containing no SAM or no inhibitor were included.
# [2] = biological target: T2, Set7/9 (Homo sapiens, UniProt Q8WTS6); test: Set7/9 FLT protease protection assay; assay type: biochemical; details: for overall lifetime change between substrate and product / maximum range of the assay: Set7/9 time-course, 1 μM peptide
# T2 construct: purchased BPS BioScience (via AMSBio, UK)
# T2 sequence (Q8WTS6 1-366): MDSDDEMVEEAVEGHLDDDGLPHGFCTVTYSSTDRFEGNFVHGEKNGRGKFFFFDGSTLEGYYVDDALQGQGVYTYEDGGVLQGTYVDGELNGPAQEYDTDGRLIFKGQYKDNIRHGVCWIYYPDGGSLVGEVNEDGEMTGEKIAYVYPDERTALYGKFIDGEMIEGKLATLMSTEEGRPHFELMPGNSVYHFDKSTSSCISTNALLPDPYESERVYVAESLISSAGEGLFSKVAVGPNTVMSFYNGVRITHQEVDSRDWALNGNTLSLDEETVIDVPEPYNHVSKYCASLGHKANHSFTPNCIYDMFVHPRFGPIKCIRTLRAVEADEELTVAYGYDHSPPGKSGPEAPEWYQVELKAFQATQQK
# Procedure: The assay was performed at room temperature and samples taken after 0 h, 2 h, and 6 h time intervals respectively.
# 10 μl of Endo-LysC (final concentration 2 nM) was added to each well and the plate incubated at room temperature for 15 mins before the FLTs were measured using a NanoTaurus plate reader. Peptide only controls were included at the same concentration for comparison.
# Assays were performed in a 20 μl volume in a 384-well black microplate and contained peptide 12 (1 μM) and Set7/9 enzyme (100 nM, 50 nM, 25 nM, or 12.5 nM) in assay buffer. Reactions were stopped at regular intervals by the addition of 10 μl Endo-LysC (final concentration 2 nM). FLTs were measured following 15 min incubation with Endo-LysC at room temperature. All measurements were performed in duplicate using a NanoTaurus plate reader.
# The dependence of the Set7/9 assay on SAM co-factor was investigated using peptide 13 as the substrate. The assay was performed in a 384-well microplate at room temperature for 2 h in assay buffer (20 μl) using 25 nM Set7/9 and 1 μM substrate. SAM concentrations were varied from 100 μM-1.7 nM. On completion, Endo-LysC (2 nM) was added to each well and FLTs measured following a 20 min incubation period.
# as §2
# Alternatively, assays were performed in a 384-well microplate at room temperature with an assay volume of 20 μl per well. To wells containing recombinant Set7/9 enzyme and peptide 12 or 13 in assay buffer (10 μl) was added SAM (10 μl) in assay buffer. Controls containing peptide only were also included. The plate was shaken and then sealed with a coverslip. The final concentration of Set7/9 in the assay varied between 100 nM and 12.5 nM whilst the concentration of peptide and SAM were kept constant at 1 μM and 100 μM respectively. Assays were started at different times and stopped together after 120 min by the addition of Endo-LysC (10 μl in assay buffer; final concentration 2 nM). Following incubation at room temperature for 15 min, the microplate was centrifuged at 500 rpm for 1 min and FLTs measured. All measurements were performed in duplicate.
# For inhibitor titrations, compounds (5 μl) were preincubated with Set7/9 and peptide 13 (5 μl) for 10 min at room temperature prior to addition of SAM (10 μl). Controls containing no SAM or no inhibitor were included.
# [3] = biological target: T2, Set7/9; details: literature (Gauthier et al. 2012), lower concentration of SAM; read-out: reported IC50; cited from earlier work
# [4] = biological target: T3, PAD2 (Homo sapiens, UniProt Q9Y2J8); test: PAD2 FLT protease protection assay; assay type: biochemical; details: 15 μM peptide, 30 nM PAD2, diluted to 1 μM; 10 nM trypsin 10 min
# T3 construct: purchased Modiquest Research
# T3 sequence (Q9Y2J8 whole entry): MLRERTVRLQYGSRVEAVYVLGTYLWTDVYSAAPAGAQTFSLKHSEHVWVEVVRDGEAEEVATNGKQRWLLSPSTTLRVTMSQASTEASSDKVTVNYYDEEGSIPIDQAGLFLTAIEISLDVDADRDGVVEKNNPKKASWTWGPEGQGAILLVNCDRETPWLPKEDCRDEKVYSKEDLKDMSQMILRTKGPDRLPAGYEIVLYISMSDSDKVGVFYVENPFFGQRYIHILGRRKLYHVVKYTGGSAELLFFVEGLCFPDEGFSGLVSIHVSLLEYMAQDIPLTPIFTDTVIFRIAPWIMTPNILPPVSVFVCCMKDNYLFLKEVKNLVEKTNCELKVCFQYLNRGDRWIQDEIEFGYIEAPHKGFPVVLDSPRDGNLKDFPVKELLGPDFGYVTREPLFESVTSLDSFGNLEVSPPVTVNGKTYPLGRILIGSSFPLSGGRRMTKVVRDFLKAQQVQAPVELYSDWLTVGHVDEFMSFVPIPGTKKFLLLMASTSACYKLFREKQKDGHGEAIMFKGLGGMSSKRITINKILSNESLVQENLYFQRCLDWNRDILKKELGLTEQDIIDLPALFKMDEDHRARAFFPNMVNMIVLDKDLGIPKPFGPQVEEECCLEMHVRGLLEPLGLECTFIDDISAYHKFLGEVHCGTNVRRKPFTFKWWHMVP
# Procedure: Accordingly, peptide 1 (15 μM) was incubated with PAD2 (30 nM) in assay buffer (20 mM Tris pH 8, 200 μM CaCl2, 5 mM DTT, 0.01% CHAPS) (300 μl) and aliquots taken at regular time intervals and analysed by RP-HPLC. The assays were performed at room temperature and samples taken at 0 min, 30 min, and 120 min time intervals
# In order to test if citrullination of peptide 1 by PAD2 had conferred protection against trypsin, the assay mixture was diluted to 1 μM concentration with assay buffer and 20 μl added to three wells of a 384-well black microplate. 10 μl of trypsin (final concentration 10 nM) was added to each well and the plate incubated at room temperature for 10 mins before the fluorescence lifetimes (FLTs) were measured using the NanoTaurus plate reader as described in the Experimental section. Peptide only controls were included at the same concentration for comparison.
# For HPLC monitoring, assays were performed at room temperature in micro-centrifuge tubes with a total assay volume of 300 μl. Reactions were started by addition of peptide 1 to solutions containing recombinant PAD2 enzyme. […]
# (§1) Where citrullination of the peptide substrate was confirmed, the assay mixtures were diluted 15-fold with assay buffer and transferred to a 384-well microplate (20 μl per well) and FLTs measured. […] FLTs were then re-measured. […]
# [5] = biological target: T4, PAD4 (Homo sapiens, UniProt Q9UM07); test: PAD4 FLT protease protection assay; assay type: biochemical; details: 15 μM peptide, 30 nM PAD4, diluted to 1 μM; 10 nM trypsin 10 min
# T4 construct: purchased Origene (via Insight Biotechnology)
# T4 sequence (Q9UM07 whole entry): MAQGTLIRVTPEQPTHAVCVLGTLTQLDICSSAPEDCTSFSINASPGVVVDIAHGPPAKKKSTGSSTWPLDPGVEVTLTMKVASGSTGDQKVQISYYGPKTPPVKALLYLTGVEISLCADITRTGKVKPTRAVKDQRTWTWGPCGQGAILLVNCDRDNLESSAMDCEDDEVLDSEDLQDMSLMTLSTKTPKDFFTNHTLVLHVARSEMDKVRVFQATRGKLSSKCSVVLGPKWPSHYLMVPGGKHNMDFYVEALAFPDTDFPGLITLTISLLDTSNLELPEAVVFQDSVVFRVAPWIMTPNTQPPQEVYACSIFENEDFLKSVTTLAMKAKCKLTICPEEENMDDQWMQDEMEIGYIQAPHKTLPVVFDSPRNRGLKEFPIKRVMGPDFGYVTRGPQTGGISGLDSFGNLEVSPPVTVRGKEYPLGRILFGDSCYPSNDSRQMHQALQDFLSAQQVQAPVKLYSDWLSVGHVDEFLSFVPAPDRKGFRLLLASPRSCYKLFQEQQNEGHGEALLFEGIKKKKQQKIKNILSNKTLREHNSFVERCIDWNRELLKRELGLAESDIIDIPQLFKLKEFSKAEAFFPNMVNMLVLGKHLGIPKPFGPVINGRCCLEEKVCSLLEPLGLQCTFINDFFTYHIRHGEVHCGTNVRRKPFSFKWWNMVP
# Procedure: With a suitable HPLC method in hand, PAD4 assays were set up for each of the peptide substrates and aliquots taken at regular time intervals with product formation monitored by RP-HPLC. Each assay was performed in a micro-centrifuge tube containing 15 μM peptide and 30 nM PAD4 (Origene) in assay buffer (300 μl). The assays were performed at room temperature and samples taken at 0 min, 30 min, and 60 min time intervals.
# In order to test if citrullination of peptides 1 and 3 by PAD4 had conferred protection against trypsin, the assay mixtures for these peptides (described above) were diluted to 1 μM concentration with assay buffer and 20 μl of each added to three wells of a 384-well black microplate. The FLTs were measured using the NanoTaurus plate reader as described previously. 10 μl of trypsin (final concentration 10 nM) was then added to each well and the plate incubated at room temperature for 10 mins before the FLTs were re-measured. Peptide only controls were included at the same concentration for comparison.
# The dependence of the PAD4 assay on peptide substrate concentration was investigated. […] From FIG. 73, a KM of 180 nM was determined for substrate 1. […]
# as §1
# [6] = biological target: T5, PRMT5 (Homo sapiens, UniProt O14744); test: PRMT5 FLT protease protection assay; assay type: biochemical
# T5 construct: purchased BPS BioScience (via AMSBio, UK)
# T5 sequence (O14744 whole entry): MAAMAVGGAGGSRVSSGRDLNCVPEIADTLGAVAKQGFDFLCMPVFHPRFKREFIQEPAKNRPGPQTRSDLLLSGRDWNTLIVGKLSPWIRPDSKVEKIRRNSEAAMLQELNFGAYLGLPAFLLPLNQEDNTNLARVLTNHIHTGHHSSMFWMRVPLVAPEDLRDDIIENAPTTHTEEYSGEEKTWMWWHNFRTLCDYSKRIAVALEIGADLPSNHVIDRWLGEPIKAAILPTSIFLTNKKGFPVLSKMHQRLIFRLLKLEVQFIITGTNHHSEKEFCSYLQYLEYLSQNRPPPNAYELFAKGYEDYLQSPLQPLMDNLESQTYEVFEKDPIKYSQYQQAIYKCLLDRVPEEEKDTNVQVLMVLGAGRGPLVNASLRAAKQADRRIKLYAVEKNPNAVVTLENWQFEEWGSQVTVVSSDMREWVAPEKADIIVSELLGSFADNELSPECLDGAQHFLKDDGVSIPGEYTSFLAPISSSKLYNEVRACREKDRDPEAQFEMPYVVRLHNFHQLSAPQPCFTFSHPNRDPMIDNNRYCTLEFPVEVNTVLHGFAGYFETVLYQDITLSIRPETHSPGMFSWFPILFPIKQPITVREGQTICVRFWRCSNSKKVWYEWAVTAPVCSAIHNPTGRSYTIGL
# Procedure: The assay was performed at room temperature and samples taken after 0 h, 3.5 h, and 17.5 h time intervals respectively.
# 10 μl of Endo-ArgC (final concentration 10 nM) was added to each well and the plate incubated at room temperature for 60 mins before FLTs were measured. Peptide only controls were included at the same concentration for comparison.
# Conditions were as follows: sinefungin (2 mM-0.1 μM), PRMT5 (50 nM), SAM (10 μM) and peptide 15 (1 μM) in assay buffer (20 μl). Reactions were performed in triplicate in a 384-well microplate at room temperature for 3 h and stopped by the addition of Endo-ArgC (1 nM).
# Endo-ArgC (10 μl in assay buffer) was then added to each well and the plate incubated at room temperature for 15 mins. FLTs were then re-measured. All measurements were performed in triplicate and the final concentration of Endo-ArgC in the wells was 10 nM.
# For inhibitor titrations, compounds (5 μl) were preincubated with PRMT5/peptide 15 (5 μl) for 30 min at room temperature prior to the addition of SAM (5 μl). Assays were run for 3 h at room temperature and stopped by the addition of 10 μl Endo-ArgC. FLTs were measured following a 1 h incubation at room temperature. Controls containing no PRMT5 or no inhibitor were also included. All measurements were performed in triplicate.
compound,measurement,setting,value
9AA-TARK^9STGW-CONH2 [peptide 4],G9a concentration sufficient to confer complete protease protection,[1],50 nM
"Nc1ncnc2c1ncn2[C@@H]1O[C@H](CSCC[C@H](N)C(=O)O)[C@@H](O)[C@H]1O [SAH, S-adenosylhomocysteine, reference compound]",IC50,"[2]; peptide 13 (1 μM), Set7/9 50 nM, SAM 500 nM, 2 h",37 µM
same,IC50,[3],16 µM
C[C@@H](O)[C@H](NC(=O)[C@H](CO)NC(=O)[C@H](CCC(N)=O)NC(=O)CCc1ccc2nc3ccccc3c(N)c2c1)C(=O)N[C@@H](CCCNC(=N)N)C(=O)NCC(=O)N[C@@H](CO)C(=O)NCC(=O)N[C@@H](Cc1c[nH]cn1)C(=O)N[C@@H](Cc1c[nH]c2ccccc12)C(=O)N[C@@H](CCCCN)C(=O)N[C@@H](CCCCN)C(N)=O [peptide 1] ({Propanoyl(3-(9AA-2-yl))}-QSTRGSGHWKK-NH2),increase in FLT after trypsin for peptide exposed to PAD2,[4],no increase in FLT
same,increase in FLT after trypsin for peptide exposed to PAD4,[5],no increase in FLT
C[C@@H](O)[C@H](NC(=O)[C@H](CO)NC(=O)[C@H](CCC(N)=O)NC(=O)[C@H](Cc1c[nH]cn1)NC(=O)[C@@H](N)CCCCNC(=O)CCc1ccc2nc3ccccc3c(N)c2c1)C(=O)N[C@@H](CCCNC(=N)N)C(=O)NCC(=O)N[C@@H](CO)C(=O)NCC(=O)N[C@@H](Cc1c[nH]cn1)C(=O)N[C@@H](Cc1c[nH]c2ccccc12)C(=O)N[C@@H](CCCCN)C(=O)N[C@@H](CCCCN)C(N)=O [peptide 3] (H-K(Propanoyl(3-(9AA-2-yl)))HQSTRGSGHWKK-NH2; N-terminus assumed),increase in FLT after trypsin for peptide exposed to PAD4,[5],no increase in FLT
"Nc1ncnc2c1ncn2[C@@H]1O[C@H](C[C@@H](N)CC[C@H](N)C(=O)O)[C@@H](O)[C@H]1O [sinefungin, reference compound]",IC50,"[6]; peptide 15 (1 μM), PRMT5 50 nM, SAM 10 μM, 3 h",13 µM
Ac-WSGRGKGGK(9AA)GLGKGGAKRHRK-CONH2 [peptide 15],increase in FLT after Endo-ArgC for peptide exposed to PRMT5,"[6]; 150 nM PRMT5, 100 μM SAM, reaction not complete, 10 nM Endo-ArgC 60 min",4.7 ns
K(9AA)ARTK(Me)QTARK^9STGGW-CONH2 [peptide 9],G9a concentration sufficient to confer complete protease protection,[1],50 nM
same,protease protection after G9a treatment,"[1]; G9a (Millipore) 500 nM, 2 nM Endo-LysC 60 min",complete protease protection
WARTKQTARK(9AA)STGGKAPRKQLAK-CONH2 [peptide 12],increase in FLT after Endo-LysC for peptide exposed to Set7/9,"[2]; 15 μM peptide, 172 nM Set7/9, 100 μM SAM, diluted to 1 μM, 2 nM Endo-LysC 15 min",no significant increase in FLT
same,overall lifetime change between substrate and product / maximum range of the assay,[2]; 2 nM Endo-LysC 15 min,approximately 2.4 ns
WRTKQTARK(9AA)STGGKAPRKQLAK-CONH2 [peptide 13],overall lifetime change between substrate and product / maximum range of the assay,[2]; 2 nM Endo-LysC 15 min,4 ns
